Results on 7 compounds are retold here after publication PMC6937553, “Structural and biochemical studies of the glucuronoyl esterase OtCE15A illuminate its interaction with lignocellulosic components” (The Journal of Biological Chemistry, 2019).

For test [1], the target named is T1, OtCE15A (Opitutus terrae, UniProt B1ZMF4).
T1 construct: gene Oter_0116; recombinant in E. coli BL21 (DE3), purified as in earlier work; catalytic Ser-267, His-408, Glu-290, Asp-356
Briefly: X-ray crystal structure. The class given is binding.

Test [2] concerns the target T1, OtCE15A. In words: continuous coupled esterase assay (K-URONIC kit). The class given is biochemical. From the text: (§1) continuous coupled esterase assay (K-URONIC kit) on OtCE15A
Test [3] deals with T2, OtCE15A (Opitutus terrae, UniProt B1ZMF4, L269Y).
T2 construct: gene Oter_0116; recombinant in E. coli BL21 (DE3), purified as in earlier work; catalytic Ser-267, His-408, Glu-290, Asp-356
T2 sequence (B1ZMF4 entry or part of it L269Y): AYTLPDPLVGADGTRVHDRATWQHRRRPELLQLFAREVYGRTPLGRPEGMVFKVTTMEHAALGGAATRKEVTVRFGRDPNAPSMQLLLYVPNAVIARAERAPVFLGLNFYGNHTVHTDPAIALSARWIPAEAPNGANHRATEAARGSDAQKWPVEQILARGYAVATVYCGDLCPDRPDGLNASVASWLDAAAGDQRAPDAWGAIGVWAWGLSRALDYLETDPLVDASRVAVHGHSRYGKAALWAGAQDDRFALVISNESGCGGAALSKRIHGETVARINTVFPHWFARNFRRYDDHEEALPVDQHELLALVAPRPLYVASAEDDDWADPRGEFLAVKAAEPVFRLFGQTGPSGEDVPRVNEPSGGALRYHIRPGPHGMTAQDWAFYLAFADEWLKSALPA
In words: continuous coupled esterase assay (K-URONIC kit). The class given is biochemical. Conditions: substrate inhibition constant.
Source text: as §1

Test [4] addresses T1, OtCE15A. Briefly: inhibition of BnzGlcA hydrolysis, coupled continuous assay (K-URONIC kit). It counts as biochemical. As to conditions: BnzGlcA as substrate (3.5 mM or 350 μM).
Test [5] addresses T1, OtCE15A. The test is described as above. The class given is biochemical. Conditions: BnzGlcA as substrate (3.5 mM or 350 μM). This is another data set of the same source.
The target in test [6] is T1, OtCE15A. Described as above. It counts as biochemical. Conditions: competitive; BnzGlcA as substrate.

Structures are written as SMILES.

T1 sequence (B1ZMF4 entry or part of it): as the sequence (B1ZMF4 entry or part of it L269Y) above, with Y237L counted along it

As to `O=C(O)[C@H]1OC(O)[C@H](O)[C@@H](O)[C@@H]1O` (some centres unmarked) [GlcA, glucuronate], the X-ray crystal structure entry in test [1] (active site) is on record as “We determined the structure of the WT OtCE15A in complex with the product GlcA”. For `COC(=O)[C@H]1OC(O)[C@H](O)[C@@H](O)[C@H]1O` (some centres unmarked) [MeGalA, methyl galacturonoate], the Km in test [2] amounted to 5.31 ± 0.51 mM.

Compound `COC(=O)[C@H]1OC(O)[C@H](O)[C@@H](O)[C@@H]1O` (some centres unmarked) [MeGlcA, methyl glucuronoate] yielded a Ksi in test [3] of 34.5 ± 11.9 mM. On to `CO[C@H]1[C@H](O)[C@@H](O)[C@@H](O[C@H]2[C@H](O[C@@H]3COC(O)[C@H](O)[C@H]3O)OC[C@@H](O[C@@H]3OC[C@@H](O)[C@H](O)[C@H]3O)[C@@H]2O)O[C@@H]1C(=O)O` (stereo partly drawn) [XUX, 2^3-(4-O-methyl-α-D-glucuronyl)-xylotriose], for which, in test [1] (active site, no variant named, taken as wild type), the X-ray crystal structure result is recorded as “OtCE15A in complex with the glucuronoxylan oligosaccharide XUX (PDB code 6T0I)”. Take `OC[C@H]1OC(O)[C@H](O)[C@@H](O)[C@@H]1O` (some centres unmarked) [glucose]: the “% inhibition at up to 250 mM” value in test [4] is under 10%. As for `OC1OC[C@@H](O[C@@H]2OC[C@@H](O)[C@H](O)[C@H]2O)[C@H](O)[C@H]1O` (some centres unmarked) [xylobiose], in test [5], the “% reduction of activity at 100 mM” value is given as ~ 50%. Moreover, the X-ray crystal structure result in test [1] (active site and second site about 25 Å away, no variant named, taken as wild type) is “showing the two xylobiose-binding sites (PDB code 6SYU)”. In turn, `OC1OC[C@@H](O)[C@H](O)[C@H]1O` (some centres unmarked) [xylose] gave a Ki in test [6] of 48.1 mM.

For orientation: Km means the substrate concentration at which the rate is half of its maximum. By % inhibition is commonly meant how much of the control response was suppressed. For orientation: Ki means the equilibrium dissociation constant of an inhibitor or competing ligand from its target.
